Data taken from publication PMC6651387, “Fine-Tuning the Activation Mode of an 1,3-Indandione-Based Ruthenium(II)-Cymene Half-Sandwich Complex by Variation of Its Leaving Group” (Molecules, 2019).
Several values for one entry are separate records, joined by “and”; a condition that tells them apart may be missing. Identical values can stand only once.

Legend:
[1] = tested on: CH1/PA-1 (ovarian teratocarcinoma) cells; test: MTT antiproliferative assay, CH1/PA-1; assay type: cell-based, human; details: exposure time 96 h, means ± standard deviations
Method: CH1/PA-1 (ovarian teratocarcinoma) cells were a generous gift from Lloyd R. Kelland (CRC Centre for Cancer Therapeutics, Institute of Cancer Research, Sutton, UK). A549 (non-small cell lung cancer), SW480, and HCT116 (both colon cancer) cells were kindly provided by the Institute of Cancer Research, Department of Medicine I, Medical University of Vienna, Austria. All cell lines were grown as monolayer cultures in Eagle’s MEM supplemented with L-glutamine (4 mM), sodium pyruvate (1 mM) and 1% (v/v) non-essential amino acid solution (all from Sigma-Aldrich) and 10% (v/v) heat-inactivated fetal calf serum (FCS, BioWest) in 75-cm^2 flasks (Starlab) at 37 °C under a humidified atmosphere containing 5% CO2 in air.
Antiproliferative activity of the compounds was determined with the colorimetric MTT assay (MTT = 3-(4,5-dimethyl-2-thiazolyl)-2,5-diphenyl-2H-tetrazolium bromide). CH1/PA-1, HCT116, SW480, and A549 cells with cell numbers of 1 × 10^3, 1.5 × 10^3, 2 × 10^3, and 3 × 10^3, respectively, were seeded in 100 μL per well into 96-well microculture plates (Starlab). After 24 h, test compounds were dissolved in DMSO (Fisher Scientific), serially diluted in complete MEM not to exceed a final DMSO content of 0.5% (v/v) and added in 100 μL per well. After 96 h, the drug-containing medium was replaced with 100 µL of RPMI 1640/MTT mixture, i. e., 6 parts of RPMI 1640 medium (Sigma-Aldrich; supplemented with 10% heat-inactivated fetal bovine serum and 4 mM L-glutamine), 1 part of MTT solution in phosphate-buffered saline (5 mg/mL; both from Sigma-Aldrich). After incubation for 4 h, the MTT-containing medium was replaced with 150 μL DMSO per well to dissolve the formazan product formed by viable cells. Optical densities at 550 nm (and at the reference wavelength of 690 nm) were measured with a microplate reader (ELx808, Bio-Tek). The IC50 values relative to untreated controls were interpolated from concentration–effect curves. At least three independent experiments were performed, each with triplicates per concentration level.

[2] = Solubility in minimal essential medium (MEM, 1% DMSO)
Method: Melting points were determined with a Büchi Melting Point M-560. The solubility was determined by dissolving the compound in DMSO and subsequent dilution to a final concentration of 1% DMSO/MEM solution (minimal essential medium) and 1% DMSO/MSP solution (medium with serum proteins). The highest concentrated dilution, where no precipitation of the compound occurred, was the determined solubility. The NMR spectra were recorded at 25 °C using a Bruker FT-NMR spectrometer Avance III^TM 500 MHz. ^1H-NMR spectra were measured at 500.10 MHz and ^13C-NMR spectra were recorded at 125.75 MHz in deuterated methanol (CD3OD). 2D-NMR spectra were measured using a gradient-enhanced mode. CHN elemental analyses were performed with a Eurovector EA3000 Elemental Analyzer in the microanalytical laboratory of the University of Vienna. Single crystals of complexes 1b–1f suitable for X-ray diffraction analysis were grown by precipitation from DCM/Et2O at 4 °C. The X-ray intensity data were measured on Bruker D8 Venture or X8 APEX II diffractometer equipped with multilayer monochromators, Mo K/α INCOATEC microfocus sealed tubes and Kryoflex cooling devices (Bruker, Karlsruhe, Germany). The structures were solved by direct methods and refined by full-matrix least-squares techniques. Non-hydrogen atoms were refined with anisotropic displacement parameters. Hydrogen atoms were inserted at calculated positions and refined with a riding model separately as rotating groups. The following software was used: Bruker SAINT software package using a narrow-frame algorithm for frame integration, SADABS [33] for absorption correction, OLEX2 [34] for structure solution, refinement, molecular diagrams and graphical user-interface, Shelxle for refinement and graphical user-interface, SHELXS-2013 [36] for structure solution, SHELXL-2013 [37] for refinement, and Platon for symmetry check. Electronspray ionization mass spectra were recorded on a Bruker AmaZon SL ion trap mass spectrometer (Bruker Daltonics GmbH, Hamburg, Germany).

[3] = pH-dependent stability by UV-VIS spectroscopy; assay type: physicochemical; details: for precipitation at pH 7.4: 40 µM, PBS, 1% DMSO, loss of absorbance without change in spectrum
Source text: The stability under physiological conditions is a vital part of the process of developing a new drug. Additionally, N-donor leaving groups equip piano-stool complexes with an elegant pH-switch. Theoretically, they can be protonated at lower pH values, as found in the extracellular matrix of the tumor tissue, and are therefore cleaved off. The resulting aqua complex is highly reactive and able to interact with biological targets. To put this theory to the test, the stability of complexes 1a–g was investigated at different pH values, i.e., 5.5, 6.5, 7.4, and 8.5. Spectra were recorded over a period of 24 h, with 40 µM solutions (1% DMSO in water) in the range of 250–700 nm. The chosen pH values represented the physiologically relevant conditions; a pH value of 8.5 is the highest pH found in the human body (in the duodenum), a pH value of 7.4 is the average pH of human blood, and a pH value of 6.5 is the pH found in the extracellular matrix of solid tumors.
Stability measurements were performed on a Lambda 35 UV/VIS spectrometer (Perkin Elmer, Boston, MA, USA). Samples of complexes 1a–g: 40 µM in PBS (pH 7.4) and isotonic saline phosphate buffer with 0.9% sodium chloride (pH 8.5), diluted isotonic acetic acid (pH 5.5), and acetate buffer (pH 6.5) with 1% DMSO. UV-VIS spectra were recorded hourly for 24 h at 37 °C. Temperature control was maintained by a PTP-6 Peltier System (Perkin Elmer, Boston, MA, USA).

Row | SMILES | IC50 [1] | solubility [2] | hydrolysis in aqueous systems ([3]; aquation to the aqua complex) | precipitation at pH 7.4 [3]
1 | Cc1ccc(C(C)C)cc1.Cn1ccnc1.F[P-](F)(F)(F)(F)F.O=C1C(=C(NCc2ccccc2)[O][Ru+])C(=O)c2ccccc21 [1b] | 16.2 ± 2.6 µM | 0.30 mg/mL and 0.40 mM | – | –
2 | Cc1ccc(C(C)C)cc1.O=C1C2=C(NCc3ccccc3)[O][Ru-]([Cl])[O+]=C2c2ccccc21 [1a] | 12.5 ± 4.4 µM | – | hydrolyzed quickly to the more reactive aqua complex | –
3 | Cc1ccc(C(C)C)cc1.F[P-](F)(F)(F)(F)F.O=C1C2=C(NCc3ccccc3)[O][Ru-]([n+]3c[nH]c4ccccc43)[O+]=C2c2ccccc21 [1d] | 10.6 ± 1.8 µM | 0.29 mg/mL and 0.37 mM | – | precipitated to some extent
4 | Cc1ccc(C(C)C)cc1.F[P-](F)(F)(F)(F)F.O=C1C2=C(NCc3ccccc3)[O][Ru-]([NH+]3CCOCC3)[O+]=C2c2ccccc21 [1g] | 12.2 ± 2.7 µM | 0.22 mg/mL and 0.29 mM | – | –
5 | Cc1ccc(C(C)C)cc1.F[P-](F)(F)(F)(F)F.O=C1C2=C(NCc3ccccc3)[O][Ru-]([n+]3ccc[nH]3)[O+]=C2c2ccccc21 [1c] | 11.5 ± 2 µM | 0.28 mg/mL and 0.39 mM | – | –
6 | Cc1ccc(C(C)C)cc1.F[P-](F)(F)(F)(F)F.O=C1C2=C(NCc3ccccc3)[O][Ru-]([n+]3cc4ccccc4[nH]3)[O+]=C2c2ccccc21 [1e] | 11 ± 3 µM | 0.06 mg/mL and 0.08 mM | – | precipitated to some extent
